Results published in patent US5519040A, “Substituted thiazole sulfonamides as antiglaucoma agents” (Allergan, priority 1994, dated 1996).

Experiments:
[1] = Cysteine reactivity probe assay (HPLC); design: unit not given here; details: cysteine in phosphate buffer pH 7.4, HPLC; unit not given
From the text: An additional measurement made on some compounds of the invention is the cysteine reactivity. This reactivity measurement gives an indication of the likelihood that a compound will react with cysteine residues in the eye, and so is a measure of the likelihood of development of sensitization in the eye to that compound. […] In general, substituents that are more highly electron withdrawing, such as sulfonyl or carbonyl moieties adjacent to the thiazole ring, increase cysteine reactivity.
2. Cysteine reactivity was measured by the following probe assay procedure. Three stock solutions of: A) the CAI compound to be tested in […] phosphate buffer; B) cysteine ([…]) in 50 mM phosphate buffer at pH 7.4; and C) phosphate buffer (50 mM) at pH 7.4, were prepared. Each solution was deoxygenated by bubbling with N2 for 10-15 min.
Reaction mixtures were prepared in triplicate by mixing equal volumes (1 mL) of two stock solutions as follows:
Hydrolytic or other chemical reactivity was detected by comparison of solutions I and II. Cysteine related reactions were detected by comparison of solutions II and III. All samples were assayed using HPLC under constant conditions and over a short period of time to minimize experimental variations in peak heights not related to CAI concentration differences. Each of the three solutions were assayed in sequence to give three sets of experimental values: Ia, IIa, IIIa, Ib, IIb, IIIb, Ic, IIc, IIIc and each set was compared separately. Mean and standard deviations of the three sets were recorded.

[2] = target: T1, (Homo sapiens, UniProt P00918); experiment: Carbonic anhydrase activity, micromethod of Maren (time to lower pH of CO2-saturated carbonate/bicarbonate buffer, phenol red endpoint); type: biochemical; details: pure enzyme from human erythrocyte; 0°-4° C.; pH 9.9 to 6.8
T1 construct: pure CA11 enzyme from human erythrocyte; from tissue; host or cells: human erythrocytes (purified enzyme)
Experimental: 1. Carbonic anhydrase activity was assayed according to the micromethod of Maren (J. PharmacoI. Exptl. Therap., 130, 26-29, 1960). All solutions and reagents were maintained at 0°-4° C. The final assay mixture contained 16 mM phenol red, added enzyme and 62.5 mM sodium carbonate/bicarbonate. Its volume was kept constant at 0.8 mL. The time required for the added enzyme to lower the pH of CO2-saturated carbonate/bicarbonate buffer from pH 9.9 to 6.8 was measured using the color change of phenol red as endpoint. T1 is the time recorded for the reaction containing no enzyme. T2 is the time recorded for the reaction containing pure CA11 enzyme from human erythrocyte, or an unknown amount in a sample. Enzyme activities (unit) were calculated using the formula:
Unit/ug=(T1 -T2)(T2 *ug protein used in assay)
IC50 of a carbonic anhydrase inhibitor is the concentration that lowers the enzyme activity to half.

| Cysteine reactivity [1] | IC50 [2] [nM] | SMILES |
| --- | --- | --- |
| reactive | 5.5 | NS(=O)(=O)c1cnc(S(=O)(=O)c2ccccc2)s1 [2-Phenylsulfonyl-5-thiazole sulfonamide] |
| reactive | 5 | NS(=O)(=O)c1ncc(C(=O)c2ccccc2)s1 [5-Benzoyl-2-thiazole sulfonamide] |
| – | 10 | CCCCCC(O)c1ncc(S(N)(=O)=O)s1 (stereo not shown) [2-(1-Hydroxyhexyl)-5-thiazole sulfonamide] |
| N.R. | 5.5 | NS(=O)(=O)c1cnc(Sc2ccccc2)s1 [2-Phenylthio-5-thiazole sulfonamide, 2-Thiophenyl-5-thiazole sulfonamide] |
| – | 15 | NS(=O)(=O)c1nc2c(s1)CCCC2 [2-Sulfamyl-4,5,6,7-tetrahydrobenzothiazole] |
| reactive | 9.3 | CN1CCN(S(=O)(=O)c2ncc(S(N)(=O)=O)s2)CC1 [4-methyl-1-(2-(5-sulfamylthiazoyl)sulfonyl)piperazine] |
| – | 9.3 | NS(=O)(=O)c1ncc(Cc2ccccc2)s1 [5-Benzyl-2-thiazole sulfonamide] |
| reactive | 12.7 | NS(=O)(=O)c1cnc([S+]([O-])c2ccccc2)s1 (stereo not shown) [2-Phenylsulfinyl-5-thiazole sulfonamide] |
| – | 33 | COc1ccc(-c2csc(S(N)(=O)=O)n2)cc1 [4-(4-Methoxyphenyl)-2-thiazole sulfonamide] |
| – | 20 | NS(=O)(=O)c1cnc(-c2ccccc2)s1 [2-Phenyl-5-thiazole sulfonamide] |
| 0.000024 | 4.2 | CCSc1cnc(S(N)(=O)=O)s1 [5-(Ethylthio)-2-thiazole sulfonamide] |
| reactive | 6 | NS(=O)(=O)c1ncc(S(=O)(=O)c2ccccc2)s1 [5-Phenylsulfonyl-2-thiazole sulfonamide, 5-(Phenylsulfonyl)-2-thiazole sulfonamide] |
| 0.00002 | 5.9 | NS(=O)(=O)c1ncc(Cl)s1 [5-Chloro-2-thiazole sulfonamide] |
| – | 26 | CN(C)CCCC(=O)c1ncc(S(N)(=O)=O)s1 [2-(4-(N,N-dimethyl)aminobutanoyl)-5-thiazole sulfonamide] |
| – | 20 | NS(=O)(=O)c1nc(-c2ccccc2)cs1 [4-Phenyl-2-thiazole sulfonamide] |
| – | 9.1 | COC(=O)CCSc1cnc(S(N)(=O)=O)s1 [5-(2-Carbomethoxyethyl)thio-2-thiazole sulfonamide] |
| N.R. | 84 | Cc1sc(S(N)(=O)=O)nc1-c1ccccc1 [5-Methyl-4-phenyl-2-thiazole sulfonamide] |
| 0.00005 | 120 | Cc1csc(S(N)(=O)=O)n1 [4-Methyl-2-thiazole sulfonamide] |

| Cysteine reactivity [1] | IC50 [2] [nM] | SMILES |
| --- | --- | --- |
| 0.001 | 7.7 | CCCCC#Cc1ncc(S(N)(=O)=O)s1 [2-(1-Hexynyl)-5-thiazole sulfonamide] |
| < 0.000005 | 77 | CCOC(=O)c1csc(S(N)(=O)=O)n1 [4-Carboethoxy-2-thiazole sulfonamide, 4-carboethoxy-2-thiazole sulfonamide] |
| – | 5.3 | CC(C)(C)NS(=O)(=O)c1ncc(S(N)(=O)=O)s1 [2-(N-t-butylsulfamyl)-5-thiazole sulfonamide] |
| – | 10.3 | COCOCC(=O)c1ncc(S(N)(=O)=O)s1 [2-(2-(methoxymethoxy)ethanoyl)-5-thiazole sulfonamide] |
| – | 30 | COc1ccc(-c2nc(S(N)(=O)=O)sc2Cl)cc1 [5-Chloro-4-(4-methoxyphenyl)-2-thiazole sulfonamide] |
| reactive | 6.7 | CCS(=O)(=O)c1ncc(S(N)(=O)=O)s1 [2-(Ethylsulfonyl)-5-thiazole sulfonamide, 2-Ethylsulfonyl-5-thiazole sulfonamide] |
| 0.00007 | 3.5 | CCCCCC(=O)c1ncc(S(N)(=O)=O)s1 [2-Hexanoyl-5-thiazole sulfonamide, 2-(1-Hexanoyl)-5-thiazole sulfonamide] |
| – | 7.8 | NS(=O)(=O)c1ncc(Br)s1 [5-Bromo-2-thiazole sulfonamide] |
| reactive | 14.5 | CN(C)CCN(C)S(=O)(=O)c1ncc(S(N)(=O)=O)s1 [2-(N-Methyl-N-(dimethylamino)ethyl)sulfamyl-5-thiazole sulfonamide] |
| – | 20.6 | CCCCCCc1ncc(S(N)(=O)=O)s1 [2-Hexyl-5-thiazole sulfonamide, 2-(1-Hexyl)-5-thiazole sulfonamide] |
| < 0.0000024 | 6.3 | CCSc1ncc(S(N)(=O)=O)s1 [2-(Ethylthio)-5-thiazole sulfonamide, 2-Ethylthio-5-thiazole sulfonamide] |
| – | 6 | NS(=O)(=O)c1ncc(-c2ccccc2)s1 [5-Phenyl-2-thiazole sulfonamide] |
| N.R. | 61 | NS(=O)(=O)c1nccs1 [2-Thiazole sulfonamide] |
| 0.005 | 2.7 | NS(=O)(=O)c1ncc(Sc2ccccc2)s1 [5-(Phenylthio)-2-thiazole sulfonamide] |
| < 0.000024 | 3.5 | NS(=O)(=O)c1cnc(C(=O)C2CC2)s1 [2-(1-Ketocyclopropyl)-5-thiazole sulfonamide] |
| – | 6.6 | NS(=O)(=O)c1ncc(SCCO)s1 [5-(2-Hydroxyethyl)thio-2-thiazole sulfonamide] |
| reactive | 11.4 | CC[S+]([O-])c1cnc(S(N)(=O)=O)s1 (stereo not shown) [5-Ethylsufinyl-2-thiazole sulfonamide, 5-Ethylsulfinyl-2-thiazole sulfonamide] |
| 0.00019 | 5.6 | CCCCC#Cc1cnc(S(N)(=O)=O)s1 [5-(1-Hexynyl)-2-thiazole sulfonamide] |

| SMILES | Cysteine reactivity [1] | IC50 [2] [nM] |
| --- | --- | --- |
| CC(=O)OCCCC(=O)c1cnc(S(N)(=O)=O)s1 [5-(4-acetoxybutanoyl)-2-thiazole sulfonamide] | reactive | 8.4 |
| CCCCOc1ncc(S(N)(=O)=O)s1 [2-(1-Butoxy)-5-thiazole sulfonamide] | < 0.00005 | 16 |
